Data set [1] in a line: Stable iron isotope absorption study in healthy adult women (erythrocyte incorporation of oral isotopic labels). From the text:
The human study was a controlled, single blind (to the subjects), single center trial. Healthy adult women (n = 23) consumed 6 different types of investigational products in random order with a cross-over design: bouillon with and without corn porridge fortified either with [^58Fe]-PA-HCP, [^54Fe]-SO4, or [^57Fe]-PP, resulting in 6 different test meal sequences. The sequences built up a Partial Williams Latin square, balanced for first order carry over. The experimental phase lasted for a period of 33 days.
The human study was conducted between December 2016 and February 2017 at the Laboratory of Human Nutrition of the ETH Zurich. […] The study procedure was explained in detail and written informed consent was obtained. An interview was conducted, weight and height were measured and a venous blood sample was drawn to assess whether participants fulfilled inclusion and exclusion criteria (Hb, Ht, number of erythrocytes, PF). […] The labelled iron-fortified test meals were administered on days 1, 2, 3, 17, 18 and 19 (Fig. 3). Test meals were administered between 07:00 and 09:30 after an overnight fast. The participants consumed the complete test meal and a glass of 300 mL ultrapure water in the presence of the investigators. […] Quantitative consumption of the investigational product was ensured by washing the glass test meal container 2 times with 10 mL of ultrapure water. After consuming the test meals, participants were not allowed to eat or drink for 3 h.
Venous blood samples were collected after an overnight fast on day 1 (baseline), day 17 and day 33 (endpoint) to determine iron status and iron absorption from the test meals. Iron absorption was determined by quantifying the incorporation of oral stable isotopic labels into erythrocytes. Adverse events and concomitant medication were inquired and documented during the entire study. All experiments were performed in accordance with relevant guidelines and regulations. The study was approved by the ethics Committee of the Canton Zurich, Switzerland (KEK-ZH-Nr. 2016–01472). Participants gave informed written consent before participation in the study and received a symbolic reimbursement at the end of the trial. The study was registered at clinicaltrials.gov as NCT02993835 on December 15, 2016.
The bouillon meal was prepared from 300 g ultrapure water and 7 g commercial vegetable bouillon powder (Maggi Gemüse Bouillon, Maggi, Singen, Germany) per serving. The bouillon contained iodized salt, dehydrated vegetables (onion, carrot, spinach, celery), yeast extracts, white sugar, potato starch, vegetable extracts (carrot, leek, onion, garlic), sunflower seed oil, natural flavours, spices (curcumin, paprika, nutmeg), chervil, caramelized sugar and natural celery flavour. […] The inhibitory meal was a corn porridge, prepared from 300 g ultrapure water, 7 g commercial vegetable bouillon powder and 50 g whole corn flour per serving (Farina per polenta integrale, Paolo Bassetti, Pianezzo, Switzerland) to achieve an absorption-inhibiting PA:Fe molar ratio of 5.0[31],[40], representative of a moderately inhibitory meal. Whole corn flour has a phytic acid content of about 1–2%, which is higher than in wheat (0.9%) and rice (0.7%)[12],[41]. Test meals were prepared the day before each feeding and stored in individual portions in a refrigerator overnight. On the day of administration, test meals were heated in a microwave oven. The pre-weighed vials containing the labeled iron compounds were added to the test meals and were rinsed 2 times with 2 mL of ultrapure water. […] Bouillon meals further contained 0.1 mg intrinsic iron and the inhibitory meals contained 0.8 mg Fe from the corn flour.

For data set [2] the following is noted: cited from earlier work.
For data set [3] the following is noted: cited from earlier work. This is another data set of the same source.
The conditions of data set [4]: dogs, cited from earlier work.
Data set [5] deals with Caco-2 cells.
Description: In parallel to the in vivo human study, in vitro bioaccessibility of the iron compounds was assessed using a Caco-2 cell assay by assessing the amount of ferritin formed in response to the exposure to different digests. Iron fortified bouillon and bouillon with whole corn flour were prepared following the same procedure reported for the human study using [^58Fe]-PA-HCP, [^57Fe]-PP and [^54Fe]-SO4 at the level of 2.1 mg iron/3.3 g of bouillon mass through dry mixing. The resulting fortified bouillon mass was split in five fractions. Three fractions were analysed to assess iron homogeneity in the sample via Inductively Coupled Plasma Optical Emission Spectrometry (ICP-OES) as reported earlier[48] and the remaining two fractions were sent to USDA-ARS Robert Holley Center for Agriculture and Health (Ithaca, NY, USA) to determine in vitro fractional bioaccessibility (IVFBA). […]
In vitro relative bioaccessibility (IVRBA) of iron from the 2 meals with the 3 iron compounds was calculated based on ferritin formation in the Caco-2 cells: Invitrorelativebioaccessibility(IVRBA)=ngferrittinoffortifiedsample/mgproteinoffortifiedsample/ngferrittinofsamplefortifiedwith[^54Fe]SO4/mgproteinofsamplefortifiedwith[^54Fe]SO4×100
In the in vitro study, the IVFBAs were also approximately log normally distributed and analysed by robust ANOVA. […]
Where [6] appears, read: PF < 40 µg/L, bouillon + inhibitory meal.
Setting [7] is: PF ≥ 40 µg/L, bouillon + inhibitory meal.

Where two headings read alike, the source gives them in different places.

For the compound `O=P([O-])([O-])OP(=O)([O-])[O-].O=P([O-])([O-])OP(=O)([O-])[O-].O=P([O-])([O-])OP(=O)([O-])[O-].[Fe+3].[Fe+3].[Fe+3].[Fe+3]` [FePP, Ferric pyrophosphate], the “factor (FIA, bouillon vs bouillon + inhibitory meal)” value stood at 6.7 in data set [1] (PF < 40 µg/L) and 6.2 in data set [1] (PF ≥ 40 µg/L). In addition, the “factor (RBV, bouillon + inhibitory meal vs bouillon)” value in data set [1] (PF < 40 µg/L) is 1.2; in data set [1] (PF ≥ 40 µg/L), 0.9. The “FIA, geo-mean” value in data set [1] (PF < 40 µg/L, bouillon) is recorded as 1.9%; in data set [1] (setting [6]), 0.3%; in data set [1] (PF ≥ 40 µg/L, bouillon) it was 1.7%; in data set [1] (setting [7]), 0.3%. The “RBV, geo-mean” value is listed as 5.8% in data set [1] (PF < 40 µg/L, bouillon); 7.1% in data set [1] (setting [6]); 8.8% in data set [1] (PF ≥ 40 µg/L, bouillon); 8.3% in data set [1] (setting [7]). Further, the “Factor by which FIA is lower in the inhibitory meal compared to bouillon” value in data set [1] (all participants) is on record as 5.9. Moreover, the “Factor by which RBV is higher in the inhibitory meal compared to bouillon” value in data set [1] (all participants) was determined as 1.2. Moreover, the RBV in data set [2] (fortified bouillon cubes, mean PF of participants 9.4 µg/L) is reported as 13%.
For the compound `O=P(O)(O)OC1C(OP(=O)(O)O)C(OP(=O)(O)O)C(OP(=O)(O)O)C(OP(=O)(O)O)C1OP(=O)(O)O.[Fe+3]` (stereo not drawn) [monoferric phytate], the “relative biological value of iron” value in data set [3] (rat study) was “equivalent to common iron fortificants such as ferrous ammonium sulfate”. Further, the bioavailability result in data set [3] (rats) and in data set [4] was “highly bioavailable” each time. Further, in data set [4] (added to meals), the absorption entry is reported as “equal to the major pool of dietary inorganic iron”. In addition, in data set [2] (humans), the iron absorption entry is on record as “absorbed at least as well as the common pool of non-heme dietary iron”.
With Diphosphate sodium salt, the fractional absorption in data set [2] (bouillon, with the diphosphate added (4.4% without)) is 6.4%. Besides, the relative bioavailability in data set [2] (in vivo) was 13–23%.
As for ferrous sulfate [FeSO4], the “Factor by which FIA is lower in the inhibitory meal compared to bouillon” value in data set [1] (in vivo) was 6.8. Further, the “In vitro fractional bioaccessibility (IVFBA), geo-mean” value in data set [5] is reported as 9.6%.

The values are drawn from article PMC7093532, “Iron bioavailability from bouillon fortified with a novel ferric phytate compound: a stable iron isotope study in healthy women (part II)” (Scientific Reports, 2020).
